Laboratory results as given in the supplement of paper PMC10307832.

Tests used:
Test in all cases: relative viability (nuclei count vs DMSO), 5 days (fraction); higher = more cells survive
[1] = compound: CCN(CC)CCNC(=O)c1c(C)[nH]c(/C=C2\C(=O)Nc3ccc(F)cc32)c1C [Sunitinib] + CC(=O)Nc1cccc(-n2c(=O)n(C3CC3)c(=O)c3c(Nc4ccc(I)cc4F)n(C)c(=O)c(C)c32)c1 [Trametinib] (partner 0.02 µM)
Outline: (§1)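 One day after seeding in 1536-well plates, lung cancer cell lines were dosed by pin tool. Dosing was either single-drug or a fixed anchor-drug dose plus five library-drug doses (not always all listed) in √10 steps. After 5 days, nuclei were stained in one fix-and-stain step and counted on 4× images, and relative viability is the nuclei count of treated wells over that of vehicle wells, given as the median of duplicate plates.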

[2] = compound: CCN(CC)CCNC(=O)c1c(C)[nH]c(/C=C2\C(=O)Nc3ccc(F)cc32)c1C [Sunitinib] + COc1cccc2cc(-c3nc([C@H]4CC[C@H](C(=O)O)CC4)n4ncnc(N)c34)[nH]c12 [OSI-027] (partner 0.5 µM)
Outline: as §1

[3] = compound: CCN(CC)CCNC(=O)c1c(C)[nH]c(/C=C2\C(=O)Nc3ccc(F)cc32)c1C [Sunitinib] + C[C@@H](Oc1cc(-c2cnn(C3CCNCC3)c2)cnc1N)c1c(Cl)ccc(F)c1Cl [Crizotinib] (partner 1 µM)
Outline: as §1

[4] = compound: CCN(CC)CCNC(=O)c1c(C)[nH]c(/C=C2\C(=O)Nc3ccc(F)cc32)c1C [Sunitinib] + N=C(N)NC(=N)NCCc1ccccc1 [Phenformin] (partner 250 µM)
Outline: as §1

Cell Line	relative viability ([1]; first compound 0.02 µM)	relative viability ([1]; first compound 0.06325 µM)	relative viability ([1]; first compound 0.2 µM)	relative viability ([1]; first compound 0.6325 µM)	relative viability ([1]; first compound 2 µM)	relative viability ([2]; first compound 0.02 µM)	relative viability ([2]; first compound 0.06325 µM)	relative viability ([2]; first compound 0.2 µM)	relative viability ([2]; first compound 0.6325 µM)	relative viability ([2]; first compound 2 µM)	relative viability ([3]; first compound 0.02 µM)	relative viability ([3]; first compound 0.06325 µM)	relative viability ([3]; first compound 0.2 µM)	relative viability ([3]; first compound 0.6325 µM)	relative viability ([3]; first compound 2 µM)	relative viability ([4]; first compound 0.02 µM)	relative viability ([4]; first compound 0.06325 µM)	relative viability ([4]; first compound 0.2 µM)	relative viability ([4]; first compound 0.6325 µM)	relative viability ([4]; first compound 2 µM)
HCC-366	0.313	0.407	0.382	0.389	0.339	0.895	0.862	1.1	0.904	0.636	0.559	0.519	1.02	0.593	0.551	0.559	0.624	0.644	0.599	0.544
HCC-827	0.555	0.61	0.558	0.613	0.618	0.743	0.709	–	0.76	0.826	0.911	0.964	0.965	0.939	0.947	0.366	0.401	0.439	0.403	0.291
HOP-62	0.376	0.364	0.389	0.374	0.379	0.763	1.01	–	0.977	0.995	0.862	1.23	0.971	–	1.03	0.614	0.713	0.745	0.661	0.698
IA-LM	–	–	–	–	–	–	–	–	–	–	0.779	0.774	0.982	0.926	1.04	–	–	–	–	–
LC-2-ad	0.894	0.951	0.896	0.825	0.722	–	0.844	0.944	0.818	0.614	0.446	0.554	0.452	0.521	0.534	0.526	0.574	0.643	0.61	0.573
LCLC-97TM1	0.197	0.215	0.206	0.207	0.205	0.553	0.59	0.598	0.48	0.473	0.347	0.384	–	0.319	0.362	0.463	0.438	0.442	0.406	0.426
LCLC-103H	0.612	0.692	0.629	0.728	0.719	0.373	0.477	0.467	0.397	0.456	1.01	1.09	1.17	1.05	1.06	0.354	0.343	0.352	0.365	0.33
LK-2	0.498	0.809	0.858	0.747	0.964	0.175	0.257	0.189	0.2	0.194	0.203	0.265	0.203	0.23	0.231	0.224	0.427	0.406	0.494	0.249
LOU-NH91	0.791	0.811	0.844	0.823	0.787	0.778	0.74	0.772	0.73	0.742	0.733	0.732	0.789	0.71	0.746	0.734	0.699	0.765	0.825	0.764
LU99A	0.477	0.562	0.554	0.552	0.424	0.289	0.297	0.287	0.329	0.317	0.517	0.524	0.605	0.764	0.674	0.727	0.906	1	0.803	0.782
LXF-289	0.621	0.714	0.679	0.728	0.689	0.759	0.964	0.863	0.913	0.961	0.771	0.811	0.913	0.8	–	0.461	0.517	0.548	0.533	0.511
NCI-H23	0.345	0.348	0.334	0.391	0.351	0.57	0.749	0.675	0.803	0.469	0.478	0.477	0.854	0.548	0.527	0.753	–	0.93	0.878	0.763
NCI-H522	–	0.672	0.667	0.783	0.794	0.648	0.831	0.769	0.744	0.69	–	–	–	–	–	0.602	0.79	0.659	0.673	0.756
NCI-H1299	–	–	–	–	–	–	–	–	–	–	0.923	0.965	0.991	–	–	–	–	–	–	–
NCI-H1395	0.92	–	1.22	0.988	0.99	0.648	0.701	0.632	0.739	0.697	–	–	–	–	–	0.462	0.415	0.446	0.487	0.482
NCI-H1563	–	–	–	–	–	0.694	0.79	0.766	0.762	0.75	0.833	0.878	0.805	0.946	0.906	0.661	0.707	0.738	–	0.706
NCI-H1648	0.502	0.529	0.524	0.445	0.499	–	0.24	0.266	0.231	0.294	–	–	–	–	–	–	–	–	–	–
NCI-H1703	–	–	–	–	–	–	–	–	–	–	0.39	0.206	0.238	0.17	0.225	–	–	–	–	–
NCI-H1793	–	0.364	0.377	0.514	0.331	0.278	0.245	0.252	0.274	0.194	–	–	–	–	–	0.349	0.319	0.483	0.326	0.333
NCI-H2342	0.786	0.877	0.915	0.767	0.813	0.663	0.657	0.589	0.675	0.703	–	–	–	–	–	0.523	0.571	0.62	0.542	0.727
SW 900	0.718	0.715	0.941	0.795	0.766	0.597	0.715	0.665	0.584	0.614	–	–	–	–	–	0.579	0.79	0.641	0.894	0.581
